Laboratory results from patent US8361796B2, “Method for generating primate cardiovascular progenitor cells for clinical use from primate embryonic stem cells or embryonic-like state cells, and their applications” (Assistance Publique—Hopitaux de Paris, priority 2008, dated 2013).

Tests used:
[1] = tested on: CD15+ cells; experiment: Differentiation of CD15+ sorted cells treated with VEGF or PDGF; assay type: cell-based, primate; settings: 10 or 50 ng/ml
Experimental: FIGS. 11A, 11B and 11C: CD15+ cells express cardiac, endothelial and vascular proteins markers; CD15+ sorted cells were cultured for 5 days on MEF and immunostained with the indicated markers; some cells were treated with VEGF or PDGF and immunostained with anti smooth muscle actin and myosin or CD31. Some others were cultured with human fibroblast isolated from the myocardium and stained with an anti-actinin antibody.
When cultured on human cardiac fibroblasts, CD15+ cells differentiate into actinin-positive cardiomyocytes.

[2] = molecular target: EGF receptor (Homo sapiens, UniProt P00533); settings: cited from earlier work
[3] = molecular target: insulin receptor (Homo sapiens, UniProt P06213); settings: cited from earlier work
[4] = tested on: PDGF receptor; settings: cited from earlier work
[5] = tested on: HUES-1 cells
Experimental: HES cells were treated for 48 hrs with 10 ng/ml BMP2 in the presence or absence of 1 μM SU5402, a FGF receptor inhibitor, in low KO™SR (5%) containing KO™-DMEM.
Gene induction was tested using real time Q-PCR.

[6] = tested on: ERK1 and ERK2; settings: read-out: IC50, aFGF-induced tyrosine phosphorylation of ERK1 and ERK2; cited from earlier work
[7] = molecular target: fibroblast growth factor receptor 1 (FGFR1) (Homo sapiens, UniProt P11362); settings: read-out: IC50, tyrosine kinase activity of FGFR1; in the presence of 1 mM ATP; cited from earlier work
Chain of fibroblast growth factor receptor 1 (FGFR1) (P11362 22-822, species assumed): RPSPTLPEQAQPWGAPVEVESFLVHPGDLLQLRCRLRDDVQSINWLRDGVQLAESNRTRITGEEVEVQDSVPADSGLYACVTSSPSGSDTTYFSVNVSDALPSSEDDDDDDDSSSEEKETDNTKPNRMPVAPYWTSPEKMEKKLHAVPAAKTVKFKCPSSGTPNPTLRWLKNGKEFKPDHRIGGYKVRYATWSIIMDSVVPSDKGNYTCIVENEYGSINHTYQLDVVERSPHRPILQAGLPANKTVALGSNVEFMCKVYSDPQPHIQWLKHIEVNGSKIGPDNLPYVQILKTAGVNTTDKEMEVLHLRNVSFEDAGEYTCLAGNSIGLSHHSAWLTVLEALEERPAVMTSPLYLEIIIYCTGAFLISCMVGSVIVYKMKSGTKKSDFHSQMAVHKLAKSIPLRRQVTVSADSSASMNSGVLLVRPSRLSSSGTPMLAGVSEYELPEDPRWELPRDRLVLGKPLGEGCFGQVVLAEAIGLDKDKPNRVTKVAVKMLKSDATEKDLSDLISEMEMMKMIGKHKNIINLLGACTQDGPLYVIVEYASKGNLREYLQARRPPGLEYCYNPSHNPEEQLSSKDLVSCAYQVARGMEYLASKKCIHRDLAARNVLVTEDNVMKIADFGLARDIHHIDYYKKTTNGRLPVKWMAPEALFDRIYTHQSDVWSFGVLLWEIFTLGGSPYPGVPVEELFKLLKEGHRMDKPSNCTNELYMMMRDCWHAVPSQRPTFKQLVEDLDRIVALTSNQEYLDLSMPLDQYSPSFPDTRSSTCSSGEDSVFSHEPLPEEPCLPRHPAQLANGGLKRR

Chain of EGF receptor (P00533 25-1210): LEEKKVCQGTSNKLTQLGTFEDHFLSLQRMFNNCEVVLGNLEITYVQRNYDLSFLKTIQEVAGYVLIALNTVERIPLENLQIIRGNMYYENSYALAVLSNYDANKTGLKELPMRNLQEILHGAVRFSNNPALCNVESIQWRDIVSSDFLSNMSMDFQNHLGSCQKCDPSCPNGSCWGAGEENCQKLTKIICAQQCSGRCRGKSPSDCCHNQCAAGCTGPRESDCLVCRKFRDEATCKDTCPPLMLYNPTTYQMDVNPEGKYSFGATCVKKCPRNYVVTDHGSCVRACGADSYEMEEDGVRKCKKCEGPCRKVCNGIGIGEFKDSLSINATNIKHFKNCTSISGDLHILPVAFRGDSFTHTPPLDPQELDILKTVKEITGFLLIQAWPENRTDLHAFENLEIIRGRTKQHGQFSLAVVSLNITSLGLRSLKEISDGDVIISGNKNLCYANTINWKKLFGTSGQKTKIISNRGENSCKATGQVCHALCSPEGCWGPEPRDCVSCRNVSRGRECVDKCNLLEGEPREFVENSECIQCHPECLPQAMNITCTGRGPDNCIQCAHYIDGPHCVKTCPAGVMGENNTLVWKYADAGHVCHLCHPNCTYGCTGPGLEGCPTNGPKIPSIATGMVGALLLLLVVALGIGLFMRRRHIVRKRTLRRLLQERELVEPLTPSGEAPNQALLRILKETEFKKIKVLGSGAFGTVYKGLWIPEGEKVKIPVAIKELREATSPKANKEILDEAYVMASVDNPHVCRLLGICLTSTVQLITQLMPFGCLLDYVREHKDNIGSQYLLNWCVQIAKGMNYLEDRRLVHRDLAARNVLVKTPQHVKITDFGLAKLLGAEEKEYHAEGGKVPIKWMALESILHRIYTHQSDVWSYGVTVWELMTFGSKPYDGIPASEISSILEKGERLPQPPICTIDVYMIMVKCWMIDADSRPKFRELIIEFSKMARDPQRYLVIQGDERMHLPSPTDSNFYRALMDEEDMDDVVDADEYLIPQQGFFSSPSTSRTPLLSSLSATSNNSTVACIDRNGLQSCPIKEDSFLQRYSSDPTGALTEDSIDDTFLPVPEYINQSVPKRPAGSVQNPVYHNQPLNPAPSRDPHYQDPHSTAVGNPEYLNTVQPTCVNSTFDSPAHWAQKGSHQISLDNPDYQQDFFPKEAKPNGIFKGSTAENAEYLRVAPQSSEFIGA
Chain of insulin receptor (P06213 28-1382, species assumed): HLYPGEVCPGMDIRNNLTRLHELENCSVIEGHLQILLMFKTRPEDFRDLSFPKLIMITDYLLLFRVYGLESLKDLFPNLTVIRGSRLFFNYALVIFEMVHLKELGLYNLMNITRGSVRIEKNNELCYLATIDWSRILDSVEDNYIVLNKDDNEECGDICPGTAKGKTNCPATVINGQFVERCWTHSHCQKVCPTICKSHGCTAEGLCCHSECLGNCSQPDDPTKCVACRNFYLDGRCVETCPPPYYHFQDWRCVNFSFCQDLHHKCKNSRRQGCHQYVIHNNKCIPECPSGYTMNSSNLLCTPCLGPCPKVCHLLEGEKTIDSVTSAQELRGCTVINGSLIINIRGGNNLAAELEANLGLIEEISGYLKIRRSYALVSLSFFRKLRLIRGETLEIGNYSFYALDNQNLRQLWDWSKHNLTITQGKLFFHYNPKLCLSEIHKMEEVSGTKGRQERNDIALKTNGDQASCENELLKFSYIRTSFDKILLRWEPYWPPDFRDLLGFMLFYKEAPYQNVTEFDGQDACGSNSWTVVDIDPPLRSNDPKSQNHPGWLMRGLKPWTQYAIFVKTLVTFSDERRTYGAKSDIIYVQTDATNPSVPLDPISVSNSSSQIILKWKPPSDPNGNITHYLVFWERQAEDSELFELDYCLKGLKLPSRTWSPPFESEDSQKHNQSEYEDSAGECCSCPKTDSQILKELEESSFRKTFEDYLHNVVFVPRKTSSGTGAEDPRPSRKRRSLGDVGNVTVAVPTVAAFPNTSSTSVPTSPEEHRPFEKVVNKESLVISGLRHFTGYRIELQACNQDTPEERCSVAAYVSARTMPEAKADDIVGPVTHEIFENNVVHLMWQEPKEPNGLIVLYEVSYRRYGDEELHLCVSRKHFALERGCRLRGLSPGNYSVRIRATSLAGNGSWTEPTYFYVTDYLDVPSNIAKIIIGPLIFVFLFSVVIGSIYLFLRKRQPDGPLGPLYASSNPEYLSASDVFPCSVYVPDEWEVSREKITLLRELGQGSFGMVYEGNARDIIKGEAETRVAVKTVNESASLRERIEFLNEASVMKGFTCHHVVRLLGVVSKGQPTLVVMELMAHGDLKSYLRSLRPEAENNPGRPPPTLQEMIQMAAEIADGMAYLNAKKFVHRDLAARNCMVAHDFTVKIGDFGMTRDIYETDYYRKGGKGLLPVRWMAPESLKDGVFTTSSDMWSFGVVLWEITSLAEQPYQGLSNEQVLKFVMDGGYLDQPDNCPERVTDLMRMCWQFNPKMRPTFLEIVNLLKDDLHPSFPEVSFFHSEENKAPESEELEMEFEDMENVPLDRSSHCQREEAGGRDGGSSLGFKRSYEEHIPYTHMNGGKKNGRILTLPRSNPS

Compound | fate of CD15+ cells [1] | inhibition of the kinase activity of the EGF receptor [2] | inhibition of phosphorylation of the insulin receptor [3] | inhibition of tyrosine phosphorylation of the PDGF receptor [4] | enhancement of BMP2 induction of mesodermal and cardiac genes ([5]; 48 hrs, 10 ng/ml BMP2 with 1 μM SU5402 versus BMP2 alone) | enhancement of BMP2 instructive action ([5]; defined (KOSR) medium, SU5402 added to BMP2) | IC50 [6] | IC50 [7]
VEGF | endothelial | – | – | – | – | – | – | –
Cc1c[nH]c(C=C2C(=O)Nc3ccccc32)c1CCC(=O)O [SU5402, 3-[3-(2-Carboxyethyl)-4-methylpyrrol-2-methylidenyl]-2-indolinone] | – | does not inhibit | does not inhibit | only a weak inhibitor | 3-10 folds | dramatically enhanced | 10 to 20 µM | 10 to 20 µM
PDGF | smooth muscle cells | – | – | – | – | – | – | –
